Reference: US8846675B2, “N-linked heterocyclic receptor agonists for the treatment of diabetes and metabolic disorders” (Cymabay Therapeutics, Inc., priority 2007, dated 2014)

target: T1, IC-GPCR2 (Homo sapiens, UniProt Q8TDV5); test: Stimulation of cAMP in CHO cell line stably expressing IC-GPCR2 (HTRF cAMP dynamic kit); assay type: cell-based; details: 3 μM compound; relative to maximal activity of 5-Ethyl-2-{4-[4-(4-tetrazol-1-yl-phenoxymethyl)-thiazol-2-yl]-piperidin-1-yl}-pyrimidine (=100%); IC-GPCR2 stably expressing CHO cells, 30 minutes
T1 construct: expressed in transfected cells
T1 sequence (Q8TDV5 1-335 S309L): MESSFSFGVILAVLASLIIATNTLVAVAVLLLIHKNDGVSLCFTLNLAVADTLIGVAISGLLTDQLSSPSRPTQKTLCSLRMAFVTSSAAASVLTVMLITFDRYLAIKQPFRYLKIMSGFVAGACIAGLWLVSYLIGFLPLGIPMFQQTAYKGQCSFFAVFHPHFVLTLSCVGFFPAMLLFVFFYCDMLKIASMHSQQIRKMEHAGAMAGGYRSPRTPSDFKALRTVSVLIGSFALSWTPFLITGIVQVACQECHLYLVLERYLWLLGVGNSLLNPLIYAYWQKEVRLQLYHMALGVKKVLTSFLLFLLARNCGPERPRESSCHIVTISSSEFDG
Protocol: This assay was developed using a stable cell line expressing IC-GPCR-2, generated as follows. IC-GPCR2 (Seq. ID No. 1) was cloned into Gateway pDEST 40vector (Invitrogen), using the Gateway cloning system (invitrogen) according to the manufacturers instructions. A stable cell line was generated by transfecting a 10 cm plate of CHO cells (source) with 8 ug of this construct using Transit-CHO transfection kit (Mirus). CHO cells were plated the day prior to transfection at a density of 3,000,000 cells/plate. Clones were selected using the antibiotic G418 at 500 ug/ml. 23 clones were picked and assayed for the expression of the receptor by measuring changes in intracellular cAMP levels in response to an IC-GPCR2 agonist (Arena 51).
To measure cAMP activity in response to IC-GPCR2 agonist, the clones were plated in 96 well plates at 17500 cells per well. On the day after plating, cells were incubated with the IC-CPCR2 agonist at […] for 30 minutes in Ham's F12 Media (Gibco) with 0.04% DMSO. cAMP was measured using the cAMP dynamic kit from C is Bio (Bedford, Mass.) according to the manufacturers instructions. Briefly, cells were lysed, and cAMP levels determined by competitive immunoassay using D2 labeled cAMP, and europium cryptate tagged anti cAMP antibody. When in close proximity, the D2 and europium cryptate undergo fluorescence resonance energy transfer (FRET), which is measured as a fluorescence ratio (665 nm/620 nm). Unlabelled cAMP in the cell lysatc competed with the D2 labeled cAMP for the europium crypate labeled antibody. The resulting decrease in FRET signal corresponded to intracellular cAMP levels. Fluorescence was read on a BMG Labtech PHERAstar, software version 1.50.
The clone with the greatest response to IC-GPCR2 agonist was selected for the screening assay.
Compounds were dissolved in 100% DMSO to a concentration of […] to provide stock solutions. To determine activity against IC-GPCR2, compounds were incubated with IC-GPCR2 stably expressing cells (described above), at 6-8 concentrations ranging from 0.00003 to 10 micromolar, in 96 well plates, in 50 ul of Hams F12 media for 30 minutes. Cells were plated at 17500 cells per well 1 day before running the assay. All compounds were also screened against the parental CHO cells. cAMP was measured using the cAMP dynamic kit from Cis Bio (Bedford, Mass.), according to the manufacturer's instructions. Briefly, cells were lysed and cAMP levels determined by competitive immunoassay using D2 labeled cAMP, and europium cryptate tagged anti cAMP antibody. When in close proximity, the D2 and europium cryptate undergo fluorescence resonance energy transfer (FRET), which is measured as a fluorescence ratio (665 nm/620 nm). Unlabelled cAMP in the cell lysate competed with the D2 labeled cAMP for the europium crypate labeled antibody. The resulting decrease in FRET signal corresponded to intracellular cAMP levels
To determine percent activity for a tested compound, the FRET signal value obtained at a particular concentration are compared to the Maximal FRET signal value obtained for 5-Ethyl-2-{4-[4-(4-tetrazol-1-yl-phenoxymethyl)-thiazol-2-yl]-piperidin-1-yl}-pyrimidine. The maximal activity of 5-Ethyl-2-{4-[4-(4-tetrazol-1-yl-phenoxymethyl)-thiazol-2-yl]-piperidin-1-yl}-pyrimidine is designated as 100% activity. Typically, the concentration of 5-Ethyl-2-{4-[4-(4-tetrazol-1-yl-phenoxymethyl)-thiazol-2-yl]-piperidin-1-yl}-pyrimidine in the assay was approximately 0.1 μM. The synthesis of 5-Ethyl-2-{4-[4-(4-tetrazol-1-yl-phenoxymethyl)-thiazol-2-yl]-piperidin-1-yl}-pyrimidine is disclosed in co-owned pending U.S. patent application Ser. No. 11/964,461, herein incorporated by reference. Activities of compounds that were tested are shown in Table 1 below and are expressed as % activity at 3 μM compound compared to the maximal activity of 5-Ethyl-2-{4-[4-(4-tetrazol-1-yl-phenoxymethyl)-thiazol-2-yl]-piperidin-1-yl}-pyrimidine at 3 μM.

| SMILES | % activity at 3 μM [%] |
| --- | --- |
| Fc1cc(-n2cnnn2)ccc1OCc1cnn([C@H]2CCN(c3ncc(Cl)cn3)C[C@@H]2F)n1 (racemic) [Example 33, 5-Chloro-2-((trans)-3-fluoro-4-(4-((2-fluoro-4-(1H-tetrazol-1-yl)phenoxy)methyl)-2H-1,2,3-triazol-2-yl)piperidin-1-yl)pyrimidine] | 88.32 |
| Fc1cc(-n2cnnn2)ccc1OCc1cnn([C@H]2CCN(c3ncc(C(F)(F)F)cn3)C[C@@H]2F)n1 (racemic) [Example 34, 2-((trans)-3-Fluoro-4-(4-((2-fluoro-4-(1H-tetrazol-1-yl)phenoxy)methyl)-2H-1,2,3-triazol-2-yl)piperidin-1-yl)-5-(trifluoromethyl)pyrimidine] | 87.61 |
| CCc1cnc(N2CC[C@H](n3ncc(COc4ccc(-n5cnnn5)cc4F)n3)[C@@H](F)C2)nc1 (racemic) [Example 38, 5-Ethyl-2-((trans)-3-fluoro-4-(4-((2-fluoro-4-(1H-tetrazol-1-yl)phenoxy)methyl)-2H-1,2,3-triazol-2-yl)piperidin-1-yl)pyrimidine] | 85.32 |
| CC(C)(C)OC(=O)N1CC[C@@H](n2ncc(COc3ccc(-n4cnnn4)cc3F)n2)[C@H](F)C1 (relative stereo) [Example 49, (trans)-tert-Butyl 3-fluoro-4-(4-((2-fluoro-4-(1H-tetrazol-1-yl)phenoxy)methyl)-2H-1,2,3-triazol-2-yl)piperidine-1-carboxylate] | 78.48 |
| COC(=O)[C@H]1C[C@H](n2ncc(COc3ccc(-n4cnnn4)nc3)n2)CCN1C(=O)OC(C)(C)C (relative stereo) [Example 59] | 33.25 |
| CC(C)(C)OC(=O)N1CCC(n2cnc(COc3ccc(S(C)(=O)=O)cc3F)n2)CC1 [Example 1, 4-[3-(2-Fluoro-4-methanesulfonyl-phenoxymethyl)-[1,2,4]triazol-1-yl]-piperidine-1-carboxylic acid tert-butyl ester] | 64.46 |
| CC(C)(C)OC(=O)N1CCC(n2ncc(COc3ccc(-n4cnnn4)cc3)n2)CC1 [Example 3, 4-[4-(4-Tetrazol-1-yl-phenoxymethyl)-[1,2,3]triazol-2-yl]-piperidine-1-carboxylic acid tert-butyl ester] | 79.02 |
| CC(C)(C)OC(=O)N1CCC(n2ncc(COc3ccc(S(C)(=O)=O)cc3F)n2)CC1 [Example 4, 4-[4-(2-Fluoro-4-methanesulfonyl-phenoxymethyl)-[1,2,3]triazol-2-yl]-piperidine-1-carboxylic acid tert-butyl ester] | 79.18 |
| CC(C)(C)OC(=O)N1CCC(n2nnc(COc3ccc(S(C)(=O)=O)cc3F)n2)CC1 [Example 5, 4-[5-(2-Fluoro-4-methanesulfonyl-phenoxymethyl)-tetrazol-2-yl]-piperidine-1-carboxylic acid tert-butyl ester] | 75.78 |
| CC(C)(C)OC(=O)N1CCC(n2ccc(COc3ccc(-n4cnnn4)cc3F)n2)CC1 [Example 6, 4-[3-(2-Fluoro-4-tetrazol-1-yl-phenoxymethyl)-pyrazol-1-yl]-piperidine-1-carboxylic acid tert-butyl ester] | 79.51 |
| CC(C)(C)OC(=O)N1CCC(n2cc(COc3ccc(-n4cnnn4)cc3F)cn2)CC1 [Example 7, 4-[4-(2-Fluoro-4-tetrazol-1-yl-phenoxymethyl)-pyrazol-1-yl]-piperidine-1-carboxylic acid tert-butyl ester] | 78.16 |
| CC(C)(C)OC(=O)N1CCC(n2cc(COc3ccc(-n4cnnn4)cc3)cn2)CC1 [Example 8, 4-[4-(4-Tetrazol-1-yl-phenoxymethyl)-pyrazol-1-yl]-piperidine-1-carboxylic acid tert-butyl ester] | 77.16 |
| CCc1cnc(N2CCC(n3cnc(COc4ccc(S(C)(=O)=O)cc4F)n3)CC2)nc1 [Example 9, 5-Ethyl-2-{4-[3-(2-fluoro-4-methanesulfonyl-phenoxymethyl)-[1,2,4]triazol-1-yl]-piperidin-1-yl}-pyrimidine] | 65.75 |
| CCc1cnc(N2CCC(n3ncc(COc4ccc(S(C)(=O)=O)cc4F)n3)CC2)nc1 [Example 10, 5-Ethyl-2-{4-[4-(2-fluoro-4-methanesulfonyl-phenoxymethyl)-[1,2,3]triazol-2-yl]-piperidin-1-yl}-pyrimidine] | 71.04 |
| CS(=O)(=O)c1ccc(OCc2cnn(C3CCN(c4ncc(Cl)cn4)CC3)n2)c(F)c1 [Example 13, 5-Chloro-2-{4-[4-(2-fluoro-4-methanesulfonyl-phenoxymethyl)-[1,2,3]triazol-2-yl]-piperidin-1-yl}-pyrimidine] | 61.30 |
| CS(=O)(=O)c1ccc(OCc2cnn(C3CCN(c4ncc(C(F)(F)F)cn4)CC3)n2)c(F)c1 [Example 14, 2-{4-[4-(2-Fluoro-4-methanesulfonyl-phenoxymethyl)-[1,2,3]triazol-2-yl]-piperidin-1-yl}-5-trifluoromethyl-pyrimidine] | 74.80 |
| Fc1cc(-n2cnnn2)ccc1OCc1cnn(C2CCN(c3ncc(C(F)(F)F)cn3)CC2)n1 [Example 15, 2-{4-[4-(2-Fluoro-4-tetrazol-1-yl-phenoxymethyl)-[1,2,3]triazol-2-yl]-piperidin-1-yl}-5-trifluoromethyl-pyrimidine] | 75.63 |
| Fc1cc(-n2cnnn2)ccc1OCc1cnn(C2CCN(c3ncc(Cl)cn3)CC2)n1 [Example 16, 5-Chloro-2-{4-[4-(2-fluoro-4-tetrazol-1-yl-phenoxymethyl)-[1,2,3]triazol-2-yl]-piperidin-1-yl}-pyrimidine] | 70.31 |
| CS(=O)(=O)c1ccc(OCc2nnn(C3CCN(c4ncc(Cl)cn4)CC3)n2)c(F)c1 [Example 17, 5-Chloro-2-{4-[5-(2-fluoro-4-methanesulfonyl-phenoxymethyl)-tetrazol-2-yl]-piperidin-1-yl}-pyrimidine] | 68.23 |
| CCc1cnc(N2CCC(n3cc(COc4ccc(-n5cnnn5)cc4)cn3)CC2)nc1 [Example 18, 2-(4-(4-((4-(1H-tetrazol-1-yl)phenoxy)methyl)-1H-pyrazol-1-yl)piperidin-1-yl)-5-ethylpyrimidine] | 77.67 |
| CCc1cnc(N2CCC(n3cc(COc4ccc(-n5cnnn5)cc4F)cn3)CC2)nc1 [Example 19, 5-Ethyl-2-(4-(4-((2-fluoro-4-(1H-tetrazol-1-yl)phenoxy)methyl)-1H-pyrazol-1-yl)piperidin-1-yl)pyrimidine] | 80.10 |
| CC(C)(C)OC(=O)N1CCC(n2cc(COc3ccc(S(C)(=O)=O)cc3)nn2)CC1 [Example 21, 4-[4-(4-Methanesulfonyl-phenoxymethyl)[1,2,3]triazol-1-yl]-piperidine-1-carboxylic acid tert-butyl ester] | 63.66 |
